Data on 23 compounds can be found in patent US12157730B2, “Heteroaryl derivative, method for producing same, and pharmaceutical composition comprising same as effective component” (VORONOI INC., priority 2019, dated 2024).

Structures are written as SMILES.

The assay has as its target T1, Ba/F3 cell EGFR Exon20 ins NPH (Homo sapiens, UniProt P00533, INS773NPH).
T1 construct: expressed in transfected cells; host or cells: Ba/F3
In words: Ba/F3 cell proliferation suppression, EGFR Exon20 ins NPH. The settings on record: GI50 class; Ba/F3 cell line with NPH inserted at Exon20 of EGFR; 72 hours. It counts as cell-based. In short, it runs like this: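 Growth suppression determined as GI50 following 72 h exposure across 12 concentrations up to 50 um, with viability by luminescent ATP assay (CellTiter-Glo).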

With `C=CC(=O)Nc1cc(Nc2cc(N3OCC[C@@H]3c3cccc(C(F)(F)F)c3)ncn2)c(OC)cc1N(C)CCN(C)C` [compound 449, N-(2-((2-(dimethylamino)ethyl)(methyl)amino)-4-methoxy-5-((6-((R)-3-(3-(trifluoromethyl)phenyl)isoxazolidine-2-yl)pyrimidine-4-yl)amino)phenyl)acrylamide], the “Ba/F3 (NPH) Activity” value is “A (GI50 < 50 nM)”. The result for `C=CC(=O)Nc1cc(Nc2cc(N3OCC[C@@H]3c3cc(F)cc(F)c3)ncn2)c(OC)cc1N1CCC(N2CCOC[C@@H]2C)CC1` [compound 843, N-(5-((6-((R)-3-(3,5-difluorophenyl)isoxazolidine-2-yl)pyrimidine-4-yl)amino)-4-methoxy-2-(4-((S)-3-methylmorpholino)piperidine-1-yl)phenyl) acrylamide] reads “A (GI50 < 50 nM)”; that for `C=CC(=O)Nc1cc(Nc2cc(N3OCC[C@@H]3c3ccc(Cl)c(Cl)c3F)ncn2)c(OC)cc1N1CCC(N2CCN(C3COC3)CC2)CC1` [Example 84, N-(5-((6-((R)-3-(3,4-dichloro-2-fluorophenyl)isoxazolidine-2-yl)pyrimidine-4-yl)amino)-4-methoxy-2-(4-(4-(oxetane-3-yl)piperazine-1-yl)piperidine-1-yl)phenyl)acrylamide], “B (50 nM ≤ GI50 < 500 nM)”; that for `C=CC(=O)Nc1cc(Nc2cc(N3OCC[C@@H]3c3ccc4ccccc4c3)ncn2)c(OC)cc1N1CCN(CC)CC1` [compound 514, N-(2-(4-ethylpiperazine-1-yl)-4-methoxy-5-((6-((R)-3-(naphthalene-2-yl)isoxazolidine-2-yl)pyrimidine-4-yl)amino)phenyl)acrylamide], “B (50 nM ≤ GI50 < 500 nM)”. Consider `C=CC(=O)Nc1cc(Nc2cc(N3OCC[C@@H]3c3cccc(Cl)c3F)ncn2)c(OC)cc1N1CCC(N2CCN(C3CC3)CC2)CC1` [Example 62, N-(5-((6-((R)-3-(3-chloro-2-fluorophenyl)isoxazolidine-2-yl)pyrimidine-4-yl)amino)-2-(4-(4-cyclopropylpiperazine-1-yl)piperidine-1-yl)-4-methoxyphenyl) acrylamide], for which the “Ba/F3 (NPH) Activity” value is reported as “A (GI50 < 50 nM)”. The result for `C=CC(=O)Nc1cc(Nc2cc(N3OCC[C@@H]3c3ccc(Cl)cc3)ncn2)c(OC)cc1N1CC[C@@H](N2CCOCC2)C1` [compound 733, N-(5-((6-((R)-3-(4-chlorophenyl)isoxazolidine-2-yl)pyrimidine-4-yl)amino)-4-methoxy-2-((R)-3-morpholinopyrolidine-1-yl)phenyl)acrylamide] reads “A (GI50 < 50 nM)”. The result for `C=CC(=O)Nc1cc(Nc2cc(N3OCC[C@H]3c3c(F)cccc3F)ncn2)c(OC)cc1N1CCC(N2CCN(C(C)=O)CC2)CC1` [compound 310, N-(2-(4-(4-acetylpiperazine-1-yl)piperidine-1-yl)-5-((6-((S)-3-(2,6-difluorophenyl)isoxazolidine-2-yl)pyrimidine-4-yl)amino)-4-methoxyphenyl) acrylamide] reads “C (500 nM ≤ GI50 < 5000 nM)”. Then `C=CC(=O)Nc1cc(Nc2cc(N3OCC[C@@H]3c3cccc(Cl)c3C)ncn2)c(OC)cc1N1CCC(N2CCN(C)CC2)CC1` [compound 485, N-(5-((6-((R)-3-(3-chloro-2-methylphenyl)isoxazolidine-2-yl)pyrimidine-4-yl)amino)-4-methoxy-2-(4-(4-methylpiperazine-1-yl)piperidine-1-yl)phenyl) acrylamide], with “A (GI50 < 50 nM)”; and `C=CC(=O)Nc1cc(Nc2cc(N3OCC[C@@H]3c3cccc(C)c3F)ncn2)c(OC)cc1N1CCOCC1` [compound 844, N-(5-((6-((R)-3-(2-fluoro-3-methylphenyl)isoxazolidine-2-yl)pyrimidine-4-yl)amino)-4-methoxy-2-morpholinophenyl) acrylamide], with “A (GI50 < 50 nM)”.

Regarding `C=CC(=O)Nc1cc(Nc2cc(N3OCC[C@@H]3c3cccc(OC)c3)ncn2)c(OC)cc1N1CCC(N2CCOCC2)CC1` [compound 775, N-(4-methoxy-5-((6-((R)-3-(3-methoxyphenyl)isoxazolidine-2-yl)pyrimidine-4-yl)amino)-2-(4-morpholinopiperidine-1-yl)phenyl)acrylamide], the “Ba/F3 (NPH) Activity” value is recorded as “A (GI50 < 50 nM)”. On to `C=CC(=O)Nc1cc(Nc2cc(N3OCC[C@@H]3c3ccc(Cl)cc3)ncn2)c(OC)cc1N1CCN(CC)CC1` [Example 255, N-(5-((6-((R)-3-(4-chlorophenyl)isoxazolidine-2-yl)pyrimidine-4-yl)amino)-2-(4-ethylpiperazine-1-yl)-4-methoxyphenyl) acrylamide], for which the “Ba/F3 (NPH) Activity” value is given as “A (GI50 < 50 nM)”. Then `C=CC(=O)Nc1cc(Nc2cc(N3OCC[C@@H]3c3cc(F)cc(Cl)c3)ncn2)c(OC)cc1N1CCC(N(C)C)CC1` [compound 627, N-(5-((6-((R)-3-(3-chloro-5-fluorophenyl)isoxazolidine-2-yl)pyrimidine-4-yl)amino)-2-(4-(dimethylamino)piperidine-1-yl)-4-methoxyphenyl) acrylamide], with “A (GI50 < 50 nM)”.

For `C=CC(=O)Nc1cc(Nc2cc(N3OCC[C@H]3Cc3cccnc3)ncn2)c(OC)cc1N1CCC(N2CCN(C3CC3)CC2)CC1` [compound 988, N-(2-(4-(4-cyclopropylpiperazine-1-yl)piperidine-1-yl)-4-methoxy-5-((6-((R)-3-(pyridine-3-ylmethyl)isoxazolidine-2-yl)pyrimidine-4-yl)amino)phenyl) acrylamide], the “Ba/F3 (NPH) Activity” value was “B (50 nM ≤ GI50 < 500 nM)”. The result for `C=CC(=O)Nc1cc(Nc2cc(N3OCC[C@@H]3c3cccc(C#N)c3)ncn2)c(OC)cc1N1CCC(N2CCN(C3CC3)CC2)CC1` [Example 141, N-(5-((6-((R)-3-(3-cyanophenyl)isoxazolidine-2-yl)pyrimidine-4-yl)amino)-2-(4-(4-cyclopropylpiperazine-1-yl)piperidine-1-yl)-4-methoxyphenyl) acrylamide] reads “A (GI50 < 50 nM)”. Then `C=CC(=O)Nc1cc(Nc2cc(N3OCC[C@@H]3c3cccc(Cl)c3F)ncn2)c(OC)cc1N1CCC(N2C[C@@H](C)O[C@@H](C)C2)CC1` [compound 706, N-(5-((6-((R)-3-(3-chloro-2-fluorophenyl)isoxazolidine-2-yl)pyrimidine-4-yl)amino)-2-(4-((2S,6R)-2,6-dimethylmorpholino)piperidine-1-yl)-4-methoxyphenyl) acrylamide], with “A (GI50 < 50 nM)”; and `C=CC(=O)Nc1cc(Nc2cc(N3OCC[C@@H]3c3cccc(F)c3)ncn2)c(OC)cc1N1CCC(N2CCN(C(C)=O)CC2)CC1` [compound 741, N-(2-(4-(4-acetylpiperazine-1-yl)piperidine-1-yl)-5-((6-((R)-3-(3-fluorophenyl)isoxazolidine-2-yl)pyrimidine-4-yl)amino)-4-methoxyphenyl) acrylamide], with “A (GI50 < 50 nM)”. Then `C=CC(=O)Nc1cc(Nc2cc(N3OCC[C@@H]3c3cc(F)ccc3F)ncn2)c(OC)cc1N1CCC(N2C[C@@H]3C[C@H]2CO3)CC1` [compound 826, N-(2-(4-((1S,4S)-2-oxa-5-azabicyclo [2.2.1]heptane-5-yl)piperidine-1-yl)-5-((6-((R)-3-(2,5-difluorophenyl)isoxazolidine-2-yl)pyrimidine-4-yl)amino)-4-methoxyphenyl) acrylamide], with “A (GI50 < 50 nM)”; and `C=CC(=O)Nc1cc(Nc2cc(N3OCC[C@@H]3c3cccc(F)c3F)ncn2)c(OC)cc1N1CCN(C(C)C)CC1` [compound 334, N-(5-((6-((R)-3-(2,3-difluorophenyl)isoxazolidine-2-yl)pyrimidine-4-yl)amino)-2-(4-isopropylpiperazine-1-yl)-4-methoxyphenyl) acrylamide], with “A (GI50 < 50 nM)”; and `C=CC(=O)Nc1cc(Nc2cc(N3OCC[C@@H]3Cc3ccccc3)ncn2)c(OC)cc1N(C)CCOC` [compound 953, N-(5-((6-((S)-3-benzylisoxazolidine-2-yl)pyrimidine-4-yl)amino)-4-methoxy-2-((2-methoxyethyl) (methyl)amino)phenyl) acrylamide], with “B (50 nM ≤ GI50 < 500 nM)”.

Take `C=CC(=O)Nc1cc(Nc2cc(N3OCC[C@@H]3c3ccccc3)ncn2)c(OC)cc1N1CCC(N(C)CCOC)CC1` [compound 736, N-(4-methoxy-2-(4-((2-methoxyethyl) (methyl)amino)piperidine-1-yl)-5-((6-((R)-3-phenylisoxazolidine-2-yl)pyrimidine-4-yl)amino)phenyl) acrylamide]: the “Ba/F3 (NPH) Activity” value is on record as “A (GI50 < 50 nM)”. Then `C=CC(=O)Nc1cc(Nc2cc(N3OCC[C@@H]3c3cc(F)cc(F)c3)ncn2)c(OC)cc1N1CCC(N2CCO[C@@H](C)C2)CC1` [compound 757, N-(5-((6-((R)-3-(3,5-difluorophenyl)isoxazolidine-2-yl)pyrimidine-4-yl)amino)-4-methoxy-2-(4-((S)-2-methylmorpholino)piperidine-1-yl)phenyl) acrylamide], with “A (GI50 < 50 nM)”; and `C=CC(=O)Nc1cc(Nc2cc(N3OCC[C@@H]3c3cc(F)ccc3F)ncn2)c(OC)cc1N1CCC(N(C)C)CC1` [compound 819, N-(5-((6-((R)-3-(2,5-difluorophenyl)isoxazolidine-2-yl)pyrimidine-4-yl)amino)-2-(4-(dimethylamino)piperidine-1-yl)-4-methoxyphenyl) acrylamide], with “A (GI50 < 50 nM)”; and `C=CC(=O)Nc1cc(Nc2cc(N3OCC[C@@H]3c3cccc(C#N)c3)ncn2)c(OC)cc1N1CCC(N2CCOC[C@H]2C)CC1` [compound 388, N-(5-((6-((R)-3-(3-cyanophenyl)isoxazolidine-2-yl)pyrimidine-4-yl)amino)-4-methoxy-2-(4-((R)-3-methylmorpholino)piperidine-1-yl)phenyl) acrylamide], with “A (GI50 < 50 nM)”.
